Read-outs that look alike come from different tables or passages of the source. Marks after values point to notes of the source that are not given here.
Legend:
[1] = tested on: AGE production; assay: Test 1: AGE production inhibition (D-glucose + bovine serum albumin, fluorescence); format: biochemical
Procedure: Put the sample solution ([…]) of the concentration of cherry-blossom extract (Example 1) and cherry-leaf extract (Example 2), as shown in the chart, below, into a phosphate buffer solution (pH: […]) containing D-glucose (10%) and into bovine serum albumin (fraction 5.1%) and leave it out at a temperature of 60 degrees centigrade for two days. Dilute the reaction solution with distilled water until the intensity of fluorescent light reaches about 500, thus determining its intensity (measurement wavelength: […]). Also, the extract is to be diluted with distilled water, and the substance, after being dissolved in DMSO (dimethyl sulphoxide), is to be diluted with a phosphate buffer solution until DMSO concentration is of 1%. Each value in Chart 1 indicates an average value with standard error of the three examples. Asterisks (*, **) mean a significant difference (i.e. *: p<0.05; **: p<0.01) between the processed samples and the unprocessed samples as determined by Dunnett's Multiple Comparison Test.

[2] = tested on: normal diploid fibroblast (PDL22-32 cells); assay: Test 2-2: fibroblast apoptosis caused by CML-collagen (Caspase Assay), extracts and substances; format: cell-based, human
Procedure: 50 mg of 1 mM HCL was added to 25 mL of bovine skin-derived collagen and dissolved for two hours incubation at the temperature of 37 degrees centigrade, and was shaken as needed. Then, PBS (pH7.4 25 mL) was added to sodium cyanoborohydride (1.42 g) and to glyoxylic acid (0.9 g) and mixed so as to react at the temperature of 37 degrees centigrade for 24 hours. The reaction solution was then put into a dialysis cell of 10,000 molecular mass for a dialysis-with-water test to be conducted for one day and for a dialysis-with-PBS to be conducted for six days. CML-collagen (21 mg) was obtained by freeze-drying the dialysate.
The fibroblast (7×10^4 cells) was suspended in the D-MEM medium containing FCS (0.5%), penicillin (100 units/mL) and streptomycin ([…]) to be seeded within 96-well plates ([…]). After 24 hours of culture, the dissolved CML-collagen solution (2 mg·mL) and the sample solution ([…]) were added to the medium and cultured for 24 hours. Collagen, instead of CML-collagen, was added to Normal group.
The rate of cell survival was measured by MIT Assay. The result is shown in Chart 2. At the same time, a microscopic test was done, of which the result of formazan formation of fibroblast (×100) is shown in FIG. 2. Apoptosis was identified by measuring active caspase-3/7 by the fluorescence method, of which the result is shown in Chart 3, below. Each value of Charts 2 and 3 is indicated by the average value with standard error of the six examples. Asterisks (*, **) mean a significant difference (i.e. *: p<0.05; **: p<0.01) between the unprocessed samples and Dunnett's multiple comparison test, and f represents p<0.05 by Fisher's PLSD Test.
Here, in Test 2-2, respecting the cherry-blossom extract (Example 1), and the cherry-leaf extract (Example 2) and the seven substances contained in the cherry-blossom extract (Example 1): 1-O-(E)-Caffeoyl-β-D-glucopyranoside, 1-O-(E)-Coumaroyl-β-D-Glucopyranosideand, 1-O-(E)-Cinnamoyl-β-D-glucopyranoside, Kaempferol 3-O-3-D-glucopyranoside, Quercetin 3-O-β-D-glucopyranoside, Kaempferol 3-O-(6″-malony)-β-D-glucopyranoside and Quercetin 3-O-(6″-malony)-β-D-glucopyranoside (Examples 3 to 9), the activity against fibroblast apoptosis, caused by CML-collagen, was identified in the same way as in Test 2-1.
Also, in Test 2-2, PDL22-32 cells were used as the normal diploid fibroblast. As a target for comparison, aminoguanidine hydrochloride which is a medicine for the glycation inhibitor was examined in the same way. Each value of Chart 4 indicates an average value with standard error of the five examples. Asterisks (*, **) mean a significant difference (i.e. *: p<0.05; **: p<0.01) between processed samples and unprocessed samples with CML-collagen, determined by Dunnett's Multiple Comparison Test.

[3] = tested on: human diploid fibroblast; assay: Test 4: AGE production within the fibroblast processed with glyoxal (Western Blotting); format: cell-based; conditions: 1 and 10 mg/mL, 5 days
Procedure: Test 4 examined the activity of the cherry blossom-extract (Example 1) and of the 1-O-(E)-Caffeoyl-β-D-glucopyranoside (Example 3) against the production of AGE (carbon methyl lysine protein) within the fibroblast (human diploid fibroblast) which was processed with glyoxal.
Human diploid fibroblast (passage number 30) was suspended in a D-MEM complete culture media, and 20 mL each was seeded within a cell culture dish of 14 cm in diameter. After 48 hours of culture, samples of various concentrations and of […] of glyoxal were added to 80%-confluent cells and cultured for 5 days. After that, each sample was collected and crushed. Then, protein […] was examined by the Western Blotting method using an anti-AGE antibody to detect AGE. […] In FIG. 6, CaGlu means 1-O-(E)-Caffeoyl-β-D-glucopyranoside (Example 3).

[4] = tested on: NB1 RGB fibroblast; assay: Test 3: collagen grating formation of fibroblast glycosylated by glyoxal; format: cell-based, human
Procedure: When fibroblast is cultured in the presence of collagen solution, collagen grating formation can be identified. In a similar test, when adding fibroblast that has been glycosylated by the intermediate product of glycation (glyoxal), it is known that the collagen grating formation is inhibited.
The infant-derived NB1 RGB (passage number 22) was suspended in the D-MEM complete media (1.86×10^4 cells/mL). 15 mL each of it was seeded within each cell-culture dish of 14 cm in diameter. After 24 hours, each sample and glyoxal were added until the molecular mass of each dish became […] and incubate the dishes for five days.
Bovine skin-derived collagen (25 mg) was dissolved in 0.1% acetic acid (8.3 mL). Then, a 10-times concentration of Hanks solution ([…]) was added. Then, 0.1% acetic acid (3.5 mL) was added. 1M NaOH was added to neutralize the solution, which was sterilized by filteration to obtain the collagen solution.
The mixed solution of collected fibroblast (5.4×10^4 cell) was suspended in FCS ([…]), and collagen ([…]) was seeded within a 24-well cell-culture plate and allowed to culture for 24 hours and 48 hours. Each culture was observed through a microscope and by the naked eye. For the purpose of comparison, aminoguanidin hydrochloride which is an anti-glycation agent was also examined in the same way.

Structure (SMILES) | AGE inhibitory activity in words, related compound with less hydroxyl compared with Example 3 [1] | IC50 of AGE production inhibition [1] [µg/mL] | Inhibition Ratio (%) of AGE production ([1]; 1 μg/mL) | Inhibition Ratio (%) of AGE production ([1]; 3 μg/mL) | Inhibition Ratio (%) of AGE production ([1]; 10 μg/mL) | Inhibition Ratio (%) of AGE production ([1]; 30 μg/mL) | Inhibition Ratio (%) of AGE production ([1]; 100 μg/mL) | Inhibition Ratio (%) of AGE production ([1]; 300 μg/mL) | Inhibition Ratio (%) of fibroblast apoptosis (Caspase Assay) ([2]; 1 μg/mL) | Inhibition Ratio (%) of fibroblast apoptosis (Caspase Assay) ([2]; 3 μg/mL) | Inhibition Ratio (%) of fibroblast apoptosis (Caspase Assay) ([2]; 10 μg/mL) | inhibitory activity against apoptosis caused by CML-collagen, result in words [2] | inhibitory activity against apoptosis caused by CML-collagen, result in words ([2]; listed as Example 6) | production of AGE within the fibroblast (anti-AGE antibody, FIG. 6) [3] | Inhibition Ratio (%) of AGE production ([1]; 300 μg/mL, listed as Example 3) [%] | fibroblast shape, microscopic image after 24 hours of culture (FIG. 4) [4] | amount of collagen grating formation (naked eye, FIG. 3), compared to the control group ([4]; 100 mg/mL, with glyoxal) | Inhibition Ratio (%) of fibroblast apoptosis (Caspase Assay) ([2]; 100 μg/mL)
O=C(/C=C/c1ccc(O)cc1)O[C@@H]1OC(CO)[C@@H](O)C(O)C1O (stereo partly drawn) [1-O-(E)-Coumaroyl-β-D-glucopyranoside] | reduced | >300 | −3.2 ± 0.1% | −8.2 ± 0.1** % | −8.6 ± 0.1** % | −8.9 ± 0.1** % | −3.7 ± 0.1** % | 11.6 ± 0.1** % | 17.2 ± 0.5% | 7.1 ± 0.2% | 51.1 ± 1.9% | – | – | – | – | – | – | –
O=c1c(O[C@@H]2O[C@H](CO)[C@@H](O)[C@H](O)[C@H]2O)c(-c2ccc(O)cc2)oc2cc(O)cc(O)c12 [Kaempferol 3-O-β-D-glucopyranoside] | – | 102 | −8.4 ± 0.1** % | −9.1 ± 0.2** % | −2.0 ± 0.1% | 19.4 ± 0.1** % | 45.0 ± 0.5** % | 80.3 ± 0.7** % | −0.7 ± 0.1% | 27.9 ± 1.1% | 100.7 ± 4.2% | especially strong inhibitory activity | strong inhibitory activity | – | – | – | – | –
O=C(O)CC(=O)OCC1O[C@@H](Oc2c(-c3ccc(O)c(O)c3)oc3cc(O)cc(O)c3c2=O)C(O)C(O)[C@@H]1O (stereo partly drawn) [Quercetin 3-O-(6″-malony)-β-D-glucopyranoside] | – | 36 | −10.4 ± 0.9% | 1.9 ± 0.1% | 20.4 ± 0.3** % | 43.7 ± 0.7** % | 74.6 ± 0.7** % | 103.9 ± 3.6** % | 21.8 ± 0.7% | 36.6 ± 1.4% | 98.4 ± 4.4* % | strong inhibitory activity | – | – | – | – | – | –
O=C(/C=C/c1ccccc1)O[C@@H]1OC(CO)[C@@H](O)C(O)C1O (stereo partly drawn) [1-O-(E)-Cinnamoyl-β-D-glucopyranoside] | reduced | >300 | −8.4 ± 0.1% | −10.4 ± 0.1% | −10.9 ± 0.4* % | −7.8 ± 0.1% | 5.7 ± 0.1% | 23.3 ± 0.4** % | −11.8 ± 0.3% | 19.7 ± 0.9% | 48.6 ± 2.9% | – | – | – | – | – | – | –
O=C(O)CC(=O)OCC1O[C@@H](Oc2c(-c3ccc(O)cc3)oc3cc(O)cc(O)c3c2=O)C(O)C(O)[C@@H]1O (stereo partly drawn) [Kaempferol 3-O-(6″-malony)-β-D-glucopyranoside] | – | 78 | −5.0 ± 0.1% | −8.5 ± 0.1% | 0.2 ± 0.1% | 20.5 ± 0.3** % | 50.8 ± 0.4** % | 91.7 ± 1.7** % | −18.9 ± 0.6% | −17.3 ± 0.6% | 10.5 ± 0.5% | relatively weak activity | – | – | – | – | – | –
O=C(/C=C/c1ccc(O)c(O)c1)O[C@@H]1OC(CO)[C@@H](O)C(O)C1O (stereo partly drawn) [1-O-(E)-Caffeoyl-β-D-glucopyranoside] | – | >300 | −3.3 ± 0.1% | 0.9 ± 0.1% | 10.7 ± 0.1** % | 19.5 ± 0.3** % | 25.0 ± 0.3** % | 30.0 ± 0.4** % | 26.2 ± 0.5* % | 37.6 ± 1.2% | 72.2 ± 2.7* % | – | – | inhibited the production of AGE | 30 | – | – | –
O=c1c(O[C@@H]2O[C@H](CO)[C@@H](O)[C@H](O)[C@H]2O)c(-c2ccc(O)c(O)c2)oc2cc(O)cc(O)c12 [Quercetin 3-O-β-D-glucopyranoside] | – | 30 | 8.5 ± 0.1** % | 6.5 ± 0.1* % | 27.6 ± 0.5** % | 49.8 ± 0.7** % | 74.2 ± 1.1** % | 100.8 ± 0.6** % | 44.2 ± 1.5* % | 39.0 ± 1.1* % | 121.5 ± 5.4** % | strongest inhibitory activity | – | – | – | – | – | –
Cl.N=C(N)NN [Aminoguanidine Hydrochloride, aminoguanidine hydrochloride, reference compound] | – | 138 | – | – | 1.4 ± 0.1% | 18.1 ± 1.1% | 42.6 ± 1.7** % | 67.7 ± 1.6** % | – | – | – | – | – | – | – | spherically shaped | showed no increase in the amount of grating formation | 104.8 ± 34* %

Source: patent US20130196937A1, “AGE PRODUCTION INHIBITOR” (ORYZA OIL & FAT CHEMICAL CO., LTD., priority 2010, published 2013)
